Reference: PubChem BioAssay (NCI)
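Five compound concentrations were applied to cells in 96-well plates for 48 hours; endpoints were derived by simple linear interpolation of the resulting dose-response curve. GI50 is the concentration that inhibits growth by half. Definition used: TGI = concentration required for complete inhibition of growth.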

Key:
Assay in all cases: NCI tumour cell line growth inhibition, 48 h
UACC-257 melanoma = test system: UACC-257 melanoma
NCI-H460 lung = test system: NCI-H460 lung
TK-10 renal = test system: TK-10 renal
OVCAR-3 ovarian = test system: OVCAR-3 ovarian
SK-OV-3 ovarian = test system: SK-OV-3 ovarian
HCT-116 colon = test system: HCT-116 colon
SK-MEL-28 melanoma = test system: SK-MEL-28 melanoma
NCI-H226 lung = test system: NCI-H226 lung
NCI-H522 lung = test system: NCI-H522 lung
MDA-MB-435 = test system: MDA-MB-435

| SMILES | TGI (UACC-257 melanoma) [µM] | TGI (NCI-H460 lung) [µM] | TGI (TK-10 renal) [µM] | TGI (OVCAR-3 ovarian) [µM] | TGI (SK-OV-3 ovarian) [µM] | TGI (HCT-116 colon) [µM] | TGI (SK-MEL-28 melanoma) [µM] | TGI (NCI-H226 lung) [µM] | TGI (NCI-H522 lung) [µM] | GI50 (UACC-257 melanoma) [µM] | GI50 (MDA-MB-435) [µM] | TGI (MDA-MB-435) [µM] | GI50 (NCI-H460 lung) [µM] | GI50 (TK-10 renal) [µM] | GI50 (OVCAR-3 ovarian) [µM] | GI50 (SK-OV-3 ovarian) [µM] | GI50 (HCT-116 colon) [µM] | GI50 (SK-MEL-28 melanoma) [µM] | GI50 (NCI-H226 lung) [µM] | GI50 (NCI-H522 lung) [µM] |
| --- | --- | --- | --- | --- | --- | --- | --- | --- | --- | --- | --- | --- | --- | --- | --- | --- | --- | --- | --- | --- |
| Cc1ccc(S(=O)(=O)c2ccccc2[N+](=O)[O-])cc1 | > 100 | > 100 | > 100 | > 100 | > 100 | > 100 | > 100 | > 100 |  |  |  |  |  |  |  |  |  |  |  |  |
| CCCC(=O)N[C@H]1C2C3CC4C5CC(C42)C1(C)C53 (some centres undefined) | > 100 | > 100 | > 100 | > 100 | > 100 | > 100 | > 100 | > 100 | > 100 |  |  |  |  |  |  |  |  |  |  |  |
| O=C(O)CCNCCCCNCCC(=O)O |  | > 100 | > 100 | > 100 | > 100 | > 100 | > 100 | > 100 | > 100 |  |  |  |  |  |  |  |  |  |  |  |
| N/N=C1\C(=O)N(c2ccc(Cl)cc2Cl)C(=O)C(=O)C1c1nc2ccccc2o1 (centres undefined) | > 100 | > 100 | > 100 | > 100 | > 100 | > 100 | > 100 | > 100 | > 100 |  |  |  |  |  |  |  |  |  |  |  |
| C[Si](C)(C)/C=C\CCO | > 100 | > 100 | > 100 | > 100 | > 100 | > 100 | > 100 |  | > 100 |  |  |  |  |  |  |  |  |  |  |  |
| COc1ccc(C(=O)NNc2nc(Cl)nc(N3CCN(C(c4ccccc4)c4ccccc4)CC3)n2)cc1 | 9.06 | 11.9 | > 100 | 3.45 | 25.8 | 3.22 | 3.76 | 45.1 |  | 2.84 | 3.58 | 13 | 3.52 | > 100 | 1.89 | 11.9 | 1.74 | 1.84 | 18.9 |  |
| Cc1cccc(C)c1NC(=O)CCc1nc(=S)[nH][nH]1 |  | > 100 | > 100 |  | > 100 | > 100 | > 100 | > 100 | > 100 |  |  |  |  |  |  |  |  |  |  |  |
| c1ccc2c(c1)oc1ccc3nsnc3c12 | > 100 | > 10 | > 10 | > 100 | > 100 | > 100 | > 100 | > 100 | > 100 |  |  |  |  |  |  |  |  |  |  |  |
| CC1CCSC(N(C(=O)N(C)c2ccccc2)c2ccccc2)=N1 (centres undefined) | > 100 | > 100 | > 100 | > 100 | > 100 | > 100 | > 100 | > 100 | > 100 |  |  |  |  |  |  |  |  |  |  |  |
| COC(=O)CC(NC(=O)OCc1ccccc1)C(C(=O)OCc1ccccc1)C(C)(OC)OC (centres undefined) | 85.6 | 80.2 | > 100 | > 100 |  | > 100 | > 100 | 97.5 |  |  |  |  |  |  |  |  |  |  |  |  |
| CN1CCc2c1nc(-c1ccc(Cl)cc1)c1c2N(C)CC1 | 32.7 | 40.4 | 92.6 | 22.8 | 59.8 | 18.9 |  |  |  |  |  |  |  |  |  |  |  |  |  |  |
| COc1ncnc(S(=O)(=O)c2ccc(N=C3C(=O)N(CN4CCN(c5cc6c(cc5F)c(=O)c(C(=O)O)cn6C5CC5)CC4)c4ccc(Cl)cc43)cc2)c1OC | > 50 | > 50 | 36.7 | > 50 |  | > 50 | > 50 | > 50 | > 50 | 46.4 | > 50 | > 50 | 37.4 | 8.78 | > 50 |  | 26.4 | > 50 | 38.9 | > 50 |
| COc1ccc(CCn2c(=O)c3ccccc3n(C)c2=O)cc1 | > 100 | > 100 | > 100 | > 100 | > 100 | > 100 | > 100 |  | 95.2 |  |  |  |  |  |  |  |  |  |  |  |
| NCCOCCOCCNc1nc(-c2ccc(Cl)cc2)nc(N2CCN(c3ccccn3)CC2)n1 | 3.55 |  |  | 6.76 | 6.28 | 3.22 | 3.23 | 39.9 |  | 1.87 | 1.78 | 3.49 |  |  | 2.74 | 2.67 | 1.75 | 1.74 | 13.7 |  |
| Cc1c(NC(=S)NC(=O)c2ccc([N+](=O)[O-])cc2)c(=O)n(-c2ccccc2)n1C | > 100 | > 100 | > 100 | > 100 | > 100 | > 100 | > 100 | > 100 | > 100 |  |  |  |  |  |  |  |  |  |  |  |
| CCCCCC[C@H](C)Nc1nc2ccccc2c2occc12 | 16.3 | > 100 | 20.9 | 24.3 | 36.2 | 13.3 | 47.2 |  | 13.9 | 3.24 | 14.7 | 35.2 | > 100 | 6.46 | 6.27 | 16.5 | 3.2 | 21.2 |  | 2.26 |

| SMILES | TGI (UACC-257 melanoma) [µM] | TGI (NCI-H460 lung) [µM] | TGI (TK-10 renal) [µM] | TGI (OVCAR-3 ovarian) [µM] | TGI (SK-OV-3 ovarian) [µM] | TGI (HCT-116 colon) [µM] | TGI (SK-MEL-28 melanoma) [µM] | TGI (NCI-H226 lung) [µM] | TGI (NCI-H522 lung) [µM] | GI50 (UACC-257 melanoma) [µM] | GI50 (MDA-MB-435) [µM] | TGI (MDA-MB-435) [µM] | GI50 (NCI-H460 lung) [µM] | GI50 (TK-10 renal) [µM] | GI50 (OVCAR-3 ovarian) [µM] | GI50 (SK-OV-3 ovarian) [µM] | GI50 (HCT-116 colon) [µM] | GI50 (SK-MEL-28 melanoma) [µM] | GI50 (NCI-H226 lung) [µM] | GI50 (NCI-H522 lung) [µM] |
| --- | --- | --- | --- | --- | --- | --- | --- | --- | --- | --- | --- | --- | --- | --- | --- | --- | --- | --- | --- | --- |
| COC(=O)c1c2c(cc3c1CC1(Cc4cc5c(c(C(C)=O)c4C1)CCC5)C3)CCC2 (centres undefined) | > 100 | > 100 | > 100 | > 100 |  | > 100 | > 100 |  | > 100 |  |  |  |  |  |  |  |  |  |  |  |
| C=CCC1=C(C)C[C@@H]2CCC(=O)C=C12 | > 100 | > 100 | > 100 | > 100 | > 100 | > 100 | > 100 |  | > 100 |  |  |  |  |  |  |  |  |  |  |  |
| CC1=NN(C(=O)c2ccc(Cl)cc2)C(=O)/C1=C/c1ccccc1O | > 100 | > 100 | > 100 | > 100 | > 100 | > 100 | > 100 |  | > 100 |  |  |  |  |  |  |  |  |  |  |  |
| N.N.N.N.N.O=[N+]([O-])[O-].[Co+3].[O-][Cl+3]([O-])([O-])[O-] | > 100 | > 100 | > 100 | > 100 | > 100 | > 100 | > 100 |  | > 100 | > 100 |  |  | > 100 | > 100 | > 100 | > 100 | > 100 | > 100 |  | > 100 |
| Cc1cc(N(CCC#N)CCC#N)ccc1N=Nc1ccc(Br)cc1 | > 100 | > 100 | 39.8 | > 87.2 | 11.7 | > 100 | > 100 | > 46.5 | 59.8 |  |  |  |  |  |  |  |  |  |  |  |
| COc1ccc(/C(Cl)=C/c2cc(OC)ccc2OC)cc1 | > 100 |  |  |  | > 100 | > 100 | > 100 | > 100 | > 100 |  |  |  |  |  |  |  |  |  |  |  |
| CC(=O)OCC(=O)[C@@]12OC(C)(C)O[C@@H]1C[C@H]1[C@@H]3CC(C=O)=C4C=C(OCCCl)CC[C@]4(C)[C@@]3(F)[C@@H](O)C[C@@]12C | 80.6 | 88.4 | > 100 | > 100 | > 100 | 27.4 | 80.1 | 64.8 | 92 |  |  |  |  |  |  |  |  |  |  |  |
| CC(=O)O[C@]1(C)OC(=O)[C@@H](CC(C)C)N1[N+](=O)[O-] | > 100 | > 100 | > 100 | > 100 | > 100 | > 100 | > 100 | > 100 | > 100 |  |  |  |  |  |  |  |  |  |  |  |
| CC(C)(C)C(=CS(=O)/N=C/c1ccccc1)C(C)(C)C (centres undefined) | > 100 | 73.2 | > 100 | > 100 | 69.8 | > 100 | > 100 | > 100 | 63.2 |  |  |  |  |  |  |  |  |  |  |  |
| CCOC(=O)N1CCc2cc(OC)c(OC)cc2/C1=C\c1ccc(OC)c(OC)c1 | 53.8 |  | 73.9 | 82.3 | > 100 | 40.4 | > 100 | 61.2 | 77.6 |  |  |  |  |  |  |  |  |  |  |  |
| C=CCO/N=C(\OC(=O)c1ccc([N+](=O)[O-])cc1)c1ccccc1 |  | > 100 | > 100 | > 100 | > 100 |  | > 100 | > 100 |  |  |  |  |  |  |  |  |  |  |  |  |
| Cc1ccc(N=Nc2c(O)ccc3ccccc23)cc1 | > 100 |  | > 100 | > 100 | > 100 | > 100 | > 100 | > 100 | > 100 |  |  | > 100 |  |  |  |  |  |  |  |  |
| COc1cc2c(cc1OC)C(=O)/C(=C/c1cc(-c3ccc4c(c3)OCO4)n[nH]1)C2 | 3.13 | 3.79 | 3.36 | 2.8 | 7.16 | 2.55 | 3.4 |  | 0.871 | 1.71 | 1.73 | 3.27 | 1.68 | 1.89 | 1.41 | 2.89 | 1.03 | 1.89 |  | 0.258 |
| CC(=O)[O-].[Mn+3].[O-]c1ccccc1C=NCCNCCN=Cc1ccccc1[O-] | > 100 | > 100 | > 100 | > 100 | > 100 | > 100 | > 100 | > 100 | > 100 | > 100 |  |  | > 100 | > 100 | > 100 | > 100 | > 100 | > 100 | > 100 | 66 |
| COc1ccc(C(=O)C(CC2C(=O)NC(=O)NC2=O)c2ccc(OC)cc2)cc1 (centres undefined) | > 100 | > 100 | > 100 | > 100 | > 100 | > 100 | > 100 | > 100 | > 100 |  |  |  |  |  |  |  |  |  |  |  |
